# Reference: patent US6929927B2, “Method of evaluating antifungal agent” (Pola Chemical Industries Inc., priority 2000, dated 2005)
# Test system: Trichophyton mentagropytes TIMM 2789
# Experiment: MIC by microdilution method in 96-well plates, inactivation of agents by lecithin and Tween 80
# Type: cell-based
# Details: TIMM2789, 168 h, 7 days
# Procedure: MIC (minimum inhibitory concentration) was measured by means of the microdilution method by using 96-well plates to investigate the inactivation of respective agents caused by lecithin and Tween 80. The following four media were used. That is, a Sabouraud liquid medium (SDB) as a base medium, a medium obtained by adding 0.7% Tween 80 to SDB, a medium obtained by adding 1% lecithin to SDB, and a medium obtained by adding 0.7% Tween 80 and 1% lecithin to SDB were used. The following agents were used. That is, lanoconazole, bifonazole, and terbinafine were used. The following test strain was used. That is, Trichophyton mentagropytes TIMM 2789 (available from Institute of Medical Mycology of Teikyo University), which is generally used for the animal infection experiment, was used. The cultivation was performed at 28° C. for 7 days, while the microbial concentration upon the inoculation was about 10^4 conidia/ml. After the cultivation, it was regarded that MIC (μg/ml) was represented by the minimum agent concentration of the plate on which no microbial growth was observed by visual observation.
# [1] = Sabouraud liquid medium (SDB), additive none, 28° C.
"MIC (SDB with 0.7% Tween 80, 28° C.)","MIC (SDB with 1% lecithin, 28° C.)",MIC [1],SMILES
> 25 µg/mL,> 25 µg/mL,1.56 µg/mL,"c1ccc(-c2ccc(C(c3ccccc3)n3ccnc3)cc2)cc1 (stereo not drawn) [Bifonazole, bifonazole]"
0.312 µg/mL,0.078 µg/mL,≤ 0.005 µg/mL,"N#C/C(=C1/SCC(c2ccccc2Cl)S1)n1ccnc1 (stereo not drawn) [Lanoconazole, lanoconazole]"
0.312 µg/mL,0.078 µg/mL,≤ 0.005 µg/mL,"CN(C/C=C/C#CC(C)(C)C)Cc1cccc2ccccc12 [Terbinafine, terbinafine]"
